Results reported in patent EP4670722A1, “PROPHYLACTIC OR AMELIORATING AGENT FOR CELL AGING” (Kyowa Pharma Chemical Co., Ltd., priority 2023, dated 2024).

Columns and labels:
Assay type in all cases: cell-based
[1] = system: Human normal epidermal keratinocytes (HaCaT); test: Cell proliferation rate (MTT) of normal epidermal keratinocytes; conditions: 50 µg/mL to 200 µg/mL in medium, 2 days, activity increased as content increased, Fig. 1
Procedure: Human normal epidermal keratinocytes (HaCaT) were cultured using DMEM containing 10% FBS. The cultured cells were collected by trypsin treatment. The collected cells were seeded in a 96-well microplate at a concentration of 5.0 x 10^3 cells/well and cultured overnight. Thereafter, the cells were cultured for 2 days at 37°C in a medium for epidermal keratinocyte proliferation (FBS-free) to which a test sample (sucrose or 2'-fucosyllactose) was added to a concentration of 50 µg/mL, 100 µg/mL, or 200 µg/mL. The medium was replaced with FBS-free DMEM medium, then 10 µL/well of 5 mg/mL 3-[4,5-dimethylthiazol-2-yl]-2,5-diphenyltetrazolium bromide (MTT) was added, and the cells were cultured at 37°C for 3 hours. After completion of culture, formazan produced in the cells was extracted with 100 µL of dimethyl sulfoxide (DMSO). After extraction, the absorbance of formazan (As, 492 nm) was measured with a microplate reader. The reference wavelength was set to 620 nm.
Human normal epidermal keratinocytes were cultured and the absorbance of formazan was measured in the same manner as in Example 1-1, except that no test sample was added. The obtained absorbance was designated as Ab, and the cell proliferation rate represented by the following formula (1) was determined. Cell proliferation rate(%) = 100 x As/AB [formula]

[2] = system: human senescent dermal fibroblasts (NB1RGB) with a PDL of 50 or more; test: Cell proliferation rate (MTT) of senescent dermal fibroblasts; conditions: 50 µg/mL to 200 µg/mL, 2 days, suppression increased as content increased, Fig. 3
Procedure: Human normal dermal fibroblasts (NB1RGB) with a PDL of 30 or less and human senescent dermal fibroblasts (NB1RGB) with a PDL of 50 or more were each cultured using DMEM containing 10% FBS. The cultured cells were collected by trypsin treatment. The collected cells were seeded in a 96-well microplate at a concentration of 5.0 x 10^3 cells/well and cultured overnight. Thereafter, the cells were cultured for 2 days at 37°C in a medium for fibroblast proliferation (FBS-free) to which a test sample (sucrose or 2'-fucosyllactose) was added to a concentration of 50 µg/mL, 100 µg/mL,or 200 µg/mL. The medium was replaced with FBS-free DMEM medium, then 10 µL/well of 5 mg/mL 3-[4,5-dimethylthiazol-2-yl]-2,5-diphenyltetrazolium bromide (MTT) was added, and the cells were cultured at 37°C for 3 hours. […] After extraction, the absorbance of formazan (As, 492 nm) was measured with a microplate reader. […]
Human normal dermal fibroblasts with a PDL of 30 or less and human senescent fibroblasts with a PDL of 50 or more were each cultured and the absorbance of formazan was measured in the same manner as in Example 2-1, except that no test sample was added. The obtained absorbance was designated as Ab, and the cell proliferation rate represented by the above formula (1) was determined for each case of PDL of 30 or less and PDL of 50 or more.

[3] = system: GLS1; test: GLS1 expression analysis (ELISA) in HUVEC after high glucose treatment; conditions: human umbilical vein endothelial cells (HUVEC), 50 µg/mL to 1000 µg/mL, 24 hours; effect increased as content increased; Fig. 12
Procedure: Human umbilical vein endothelial cells (HUVEC) were cultured in DMEM + 10% FBS + 5 mM glucose (normal medium). The cultured cells were collected by trypsin treatment. The collected cells were seeded in a 10 cm dish and cultured for 24 hours in a 37°C, 5% CO2 incubator. Thereafter, a treatment of exposing the cells to DMEM + 10% FBS + 30 mM glucose (high glucose medium) for 10 hours and to normal medium for 14 hours was performed for 7 days. After 7 days, normal medium containing the test sample (2'-FL and lactose) at 50 µg/mL, 200 µg/mL, or 1000 µg/mL was added, and cultured for 24 hours in a 37°C, 5% CO2 incubator. The culture supernatant was removed, the cells were washed twice with PBS, and 0.20 mL of RIPA buffer was added to extract total protein. Protein in each protein extract was quantified by the Bradford assay.
Protein extracts were collected in the same manner as in [Example 10-1 B. Human gastric undifferentiated carcinoma cells (KKLS)], [Example 10-1 C. Mouse microglial cells (BV2)], [Example 10-1 D. Human gingival fibroblasts (Gin-1)], and [Example 10-1 E. Human umbilical vein endothelial cells (HUVEC)], respectively, except that a medium same as the above-mentioned medium but not containing the test sample was used instead of the medium containing the test sample, and protein in each protein extract was quantified by the Bradford assay. […]

## C[C@@H]1O[C@@H](O[C@H]2[C@H](O[C@H]3[C@H](O)[C@@H](O)C(O)O[C@@H]3CO)O[C@H](CO)[C@H](O)[C@@H]2O)[C@@H](O)[C@H](O)[C@@H]1O (stereo partly drawn) [2'-FL, 2'-fucosyllactose]
[1]
  proliferation activity of normal epidermal cells (cell proliferation rate): improved the proliferation activity of normal epidermal cells
[2]
  proliferation of senescent fibroblasts (cell proliferation rate): suppressed the proliferation of senescent fibroblasts
[3]
  GLS1 expression: suppressed GLS1 expression
